{"source": "paper PMC12749166", "about": "“Fragment-based drug design of a bacterial kinase inhibitor capable of increasing the antibiotic sensitivity of clinical isolates” (Communications Chemistry, 2025)", "key": {"APH(3’)-IIa": {"target": "T1, APH(3’)-IIa (Klebsiella pneumoniae, UniProt P00552)", "T1 construct": "His-tag (inferred from HisTrap purification); made in house; host or cells: E. coli BL21", "T1 sequence (P00552 whole entry)": "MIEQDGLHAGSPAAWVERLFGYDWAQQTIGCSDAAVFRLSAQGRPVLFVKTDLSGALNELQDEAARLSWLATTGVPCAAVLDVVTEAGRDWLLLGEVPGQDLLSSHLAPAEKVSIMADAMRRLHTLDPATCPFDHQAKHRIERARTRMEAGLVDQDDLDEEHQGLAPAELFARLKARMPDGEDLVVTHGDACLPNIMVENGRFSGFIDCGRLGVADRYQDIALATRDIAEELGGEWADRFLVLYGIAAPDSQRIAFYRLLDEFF", "assay": "biochemical", "set-up": "species or system K. pneumoniae"}, "P. aeruginosa C0307": {"test_system": "P. aeruginosa C0307", "assay": "Checkerboard assay of 83 with kanamycin A", "format": "cell-based", "conditions": "for MIC of kanamycin A: 18 h at 37 °C"}}, "data": [{"smiles": "Clc1cnc2[nH]ccc2c1-c1ccn[nH]1", "note": "[Compound 83]", "values": [{"measurement": "inhibition at 100 µM", "setting": "APH(3’)-IIa", "value": 76, "unit": "%"}, {"measurement": "MIC of kanamycin A", "setting": "P. aeruginosa C0307; 0 µg mL^−1 imipenem, [83] 2 µg mL^−1", "value": 64, "unit": "µg/mL"}, {"measurement": "MIC of kanamycin A", "setting": "P. aeruginosa C0307; 0 µg mL^−1 imipenem, [83] 4 µg mL^−1", "value": 64, "unit": "µg/mL"}, {"measurement": "MIC of kanamycin A", "setting": "P. aeruginosa C0307; 0 µg mL^−1 imipenem, [83] 8 µg mL^−1", "value": 64, "unit": "µg/mL"}, {"measurement": "MIC of kanamycin A", "setting": "P. aeruginosa C0307; 0 µg mL^−1 imipenem, [83] 16 µg mL^−1", "value": 64, "unit": "µg/mL"}, {"measurement": "MIC of kanamycin A", "setting": "P. aeruginosa C0307; 0 µg mL^−1 imipenem, [83] 32 µg mL^−1", "value": 64, "unit": "µg/mL"}, {"measurement": "MIC of kanamycin A", "setting": "P. aeruginosa C0307; 0 µg mL^−1 imipenem, [83] 64 µg mL^−1", "value": 64, "unit": "µg/mL"}, {"measurement": "MIC of kanamycin A", "setting": "P. aeruginosa C0307; 0 µg mL^−1 imipenem, [83] 128 µg mL^−1", "value": 32, "unit": "µg/mL"}, {"measurement": "MIC of kanamycin A", "setting": "P. aeruginosa C0307; 0.05 µg mL^−1 imipenem, [83] 2 µg mL^−1", "value": 64, "unit": "µg/mL"}, {"measurement": "MIC of kanamycin A", "setting": "P. aeruginosa C0307; 0.05 µg mL^−1 imipenem, [83] 4 µg mL^−1", "value": 64, "unit": "µg/mL"}, {"measurement": "MIC of kanamycin A", "setting": "P. aeruginosa C0307; 0.05 µg mL^−1 imipenem, [83] 8 µg mL^−1", "value": 64, "unit": "µg/mL"}, {"measurement": "MIC of kanamycin A", "setting": "P. aeruginosa C0307; 0.05 µg mL^−1 imipenem, [83] 16 µg mL^−1", "value": 64, "unit": "µg/mL"}, {"measurement": "MIC of kanamycin A", "setting": "P. aeruginosa C0307; 0.05 µg mL^−1 imipenem, [83] 32 µg mL^−1", "value": 64, "unit": "µg/mL"}, {"measurement": "MIC of kanamycin A", "setting": "P. aeruginosa C0307; 0.05 µg mL^−1 imipenem, [83] 64 µg mL^−1", "value": 64, "unit": "µg/mL"}, {"measurement": "MIC of kanamycin A", "setting": "P. aeruginosa C0307; 0.05 µg mL^−1 imipenem, [83] 128 µg mL^−1", "value": 32, "unit": "µg/mL"}, {"measurement": "checkerboard well reading (growth)", "setting": "P. aeruginosa C0307; Supp. Figure 3 A, 83 1 µg.mL-1, kanamycin A 0 µg.mL-1", "value": 1.117}, {"measurement": "checkerboard well reading (growth)", "setting": "P. aeruginosa C0307; Supp. Figure 3 A, 83 1 µg.mL-1, kanamycin A 2 µg.mL-1", "value": 1.340}, {"measurement": "checkerboard well reading (growth)", "setting": "P. aeruginosa C0307; Supp. Figure 3 A, 83 1 µg.mL-1, kanamycin A 4 µg.mL-1", "value": 1.454}, {"measurement": "checkerboard well reading (growth)", "setting": "P. aeruginosa C0307; Supp. Figure 3 A, 83 1 µg.mL-1, kanamycin A 8 µg.mL-1", "value": 1.268}, {"measurement": "checkerboard well reading (growth)", "setting": "P. aeruginosa C0307; Supp. Figure 3 A, 83 16 µg.mL-1, kanamycin A 0 µg.mL-1", "value": 1.272}, {"measurement": "checkerboard well reading (growth)", "setting": "P. aeruginosa C0307; Supp. Figure 3 A, 83 16 µg.mL-1, kanamycin A 2 µg.mL-1", "value": 1.771}, {"measurement": "checkerboard well reading (growth)", "setting": "P. aeruginosa C0307; Supp. Figure 3 A, 83 16 µg.mL-1, kanamycin A 4 µg.mL-1", "value": 1.508}, {"measurement": "checkerboard well reading (growth)", "setting": "P. aeruginosa C0307; Supp. Figure 3 A, 83 16 µg.mL-1, kanamycin A 8 µg.mL-1", "value": 1.668}, {"measurement": "checkerboard well reading (growth)", "setting": "P. aeruginosa C0307; Supp. Figure 3 A, 83 16 µg.mL-1, kanamycin A 16 µg.mL-1", "value": 1.123}, {"measurement": "checkerboard well reading (growth)", "setting": "P. aeruginosa C0307; Supp. Figure 3 A, 83 16 µg.mL-1, kanamycin A 32 µg.mL-1", "value": 1.123}, {"measurement": "checkerboard well reading (growth)", "setting": "P. aeruginosa C0307; Supp. Figure 3 A, 83 16 µg.mL-1, kanamycin A 64 µg.mL-1", "value": 0.184}, {"measurement": "checkerboard well reading (growth)", "setting": "P. aeruginosa C0307; Supp. Figure 3 A, 83 16 µg.mL-1, kanamycin A 128 µg.mL-1", "value": 0.041}, {"measurement": "checkerboard well reading (growth)", "setting": "P. aeruginosa C0307; Supp. Figure 3 A, 83 32 µg.mL-1, kanamycin A 0 µg.mL-1", "value": 1.376}, {"measurement": "checkerboard well reading (growth)", "setting": "P. aeruginosa C0307; Supp. Figure 3 A, 83 32 µg.mL-1, kanamycin A 2 µg.mL-1", "value": 1.667}, {"measurement": "checkerboard well reading (growth)", "setting": "P. aeruginosa C0307; Supp. Figure 3 A, 83 32 µg.mL-1, kanamycin A 4 µg.mL-1", "value": 1.435}, {"measurement": "checkerboard well reading (growth)", "setting": "P. aeruginosa C0307; Supp. Figure 3 A, 83 32 µg.mL-1, kanamycin A 8 µg.mL-1", "value": 1.524}, {"measurement": "checkerboard well reading (growth)", "setting": "P. aeruginosa C0307; Supp. Figure 3 A, 83 32 µg.mL-1, kanamycin A 16 µg.mL-1", "value": 1.359}, {"measurement": "checkerboard well reading (growth)", "setting": "P. aeruginosa C0307; Supp. Figure 3 A, 83 32 µg.mL-1, kanamycin A 32 µg.mL-1", "value": 1.130}, {"measurement": "checkerboard well reading (growth)", "setting": "P. aeruginosa C0307; Supp. Figure 3 A, 83 32 µg.mL-1, kanamycin A 64 µg.mL-1", "value": 0.118}, {"measurement": "checkerboard well reading (growth)", "setting": "P. aeruginosa C0307; Supp. Figure 3 A, 83 32 µg.mL-1, kanamycin A 128 µg.mL-1", "value": 0.042}, {"measurement": "checkerboard well reading (growth)", "setting": "P. aeruginosa C0307; Supp. Figure 3 A, 83 64 µg.mL-1, kanamycin A 0 µg.mL-1", "value": 1.213}, {"measurement": "checkerboard well reading (growth)", "setting": "P. aeruginosa C0307; Supp. Figure 3 A, 83 64 µg.mL-1, kanamycin A 2 µg.mL-1", "value": 1.320}, {"measurement": "checkerboard well reading (growth)", "setting": "P. aeruginosa C0307; Supp. Figure 3 A, 83 64 µg.mL-1, kanamycin A 4 µg.mL-1", "value": 1.451}, {"measurement": "checkerboard well reading (growth)", "setting": "P. aeruginosa C0307; Supp. Figure 3 A, 83 64 µg.mL-1, kanamycin A 8 µg.mL-1", "value": 1.433}, {"measurement": "checkerboard well reading (growth)", "setting": "P. aeruginosa C0307; Supp. Figure 3 A, 83 64 µg.mL-1, kanamycin A 16 µg.mL-1", "value": 1.312}, {"measurement": "checkerboard well reading (growth)", "setting": "P. aeruginosa C0307; Supp. Figure 3 A, 83 64 µg.mL-1, kanamycin A 32 µg.mL-1", "value": 1.055}, {"measurement": "checkerboard well reading (growth)", "setting": "P. aeruginosa C0307; Supp. Figure 3 A, 83 64 µg.mL-1, kanamycin A 64 µg.mL-1", "value": 0.042}, {"measurement": "checkerboard well reading (growth)", "setting": "P. aeruginosa C0307; Supp. Figure 3 A, 83 64 µg.mL-1, kanamycin A 128 µg.mL-1", "value": 0.044}, {"measurement": "checkerboard well reading (growth)", "setting": "P. aeruginosa C0307; Supp. Figure 3 A, 83 128 µg.mL-1, kanamycin A 0 µg.mL-1", "value": 1.324}, {"measurement": "checkerboard well reading (growth)", "setting": "P. aeruginosa C0307; Supp. Figure 3 A, 83 128 µg.mL-1, kanamycin A 2 µg.mL-1", "value": 1.439}, {"measurement": "checkerboard well reading (growth)", "setting": "P. aeruginosa C0307; Supp. Figure 3 A, 83 128 µg.mL-1, kanamycin A 4 µg.mL-1", "value": 1.308}, {"measurement": "checkerboard well reading (growth)", "setting": "P. aeruginosa C0307; Supp. Figure 3 A, 83 128 µg.mL-1, kanamycin A 8 µg.mL-1", "value": 1.307}, {"measurement": "checkerboard well reading (growth)", "setting": "P. aeruginosa C0307; Supp. Figure 3 A, 83 128 µg.mL-1, kanamycin A 16 µg.mL-1", "value": 1.218}, {"measurement": "checkerboard well reading (growth)", "setting": "P. aeruginosa C0307; Supp. Figure 3 A, 83 128 µg.mL-1, kanamycin A 32 µg.mL-1", "value": 0.227}, {"measurement": "checkerboard well reading (growth)", "setting": "P. aeruginosa C0307; Supp. Figure 3 A, 83 128 µg.mL-1, kanamycin A 64 µg.mL-1", "value": 0.039}, {"measurement": "checkerboard well reading (growth)", "setting": "P. aeruginosa C0307; Supp. Figure 3 A, 83 128 µg.mL-1, kanamycin A 128 µg.mL-1", "value": 0.039}, {"measurement": "checkerboard well reading (growth)", "setting": "P. aeruginosa C0307; Supp. Figure 3 B, 83 1 µg.mL-1, kanamycin A 0 µg.mL-1", "value": 1.239}, {"measurement": "checkerboard well reading (growth)", "setting": "P. aeruginosa C0307; Supp. Figure 3 B, 83 1 µg.mL-1, kanamycin A 2 µg.mL-1", "value": 1.239}, {"measurement": "checkerboard well reading (growth)", "setting": "P. aeruginosa C0307; Supp. Figure 3 B, 83 1 µg.mL-1, kanamycin A 4 µg.mL-1", "value": 1.159}, {"measurement": "checkerboard well reading (growth)", "setting": "P. aeruginosa C0307; Supp. Figure 3 B, 83 1 µg.mL-1, kanamycin A 8 µg.mL-1", "value": 1.192}, {"measurement": "checkerboard well reading (growth)", "setting": "P. aeruginosa C0307; Supp. Figure 3 B, 83 1 µg.mL-1, kanamycin A 16 µg.mL-1", "value": 1.219}, {"measurement": "checkerboard well reading (growth)", "setting": "P. aeruginosa C0307; Supp. Figure 3 B, 83 1 µg.mL-1, kanamycin A 32 µg.mL-1", "value": 1.181}, {"measurement": "checkerboard well reading (growth)", "setting": "P. aeruginosa C0307; Supp. Figure 3 B, 83 1 µg.mL-1, kanamycin A 64 µg.mL-1", "value": 0.113}, {"measurement": "checkerboard well reading (growth)", "setting": "P. aeruginosa C0307; Supp. Figure 3 B, 83 1 µg.mL-1, kanamycin A 128 µg.mL-1", "value": 0.042}, {"measurement": "checkerboard well reading (growth)", "setting": "P. aeruginosa C0307; Supp. Figure 3 B, 83 2 µg.mL-1, kanamycin A 0 µg.mL-1", "value": 1.144}]}]}
